{"source": "patent US7378413B2", "about": "“2-amino-3-(alkyl)-pyrimidone derivatives” (Sanofi Aventis, priority 2000, dated 2008)", "data": [{"values": [{"molecule": "Cn1c(NCCc2cccs2)nc(-c2ccncc2)cc1=O", "note": "[Compound 19, 2-[[2-(thiophen-2-yl)ethyl]amino]-3-methyl-6-pyridin-4-ylpyrimidin-4(3H)-one]", "melting point": "171.7 to 171.9 °C"}, {"molecule": "Cn1c(NCCc2ccc(OCc3ccccc3)cc2)nc(-c2ccncc2)cc1=O", "note": "[Compound 21, 2-[[2-(4-phenylmethoxyphenyl)ethyl]amino]-3-methyl-6-pyridin-4-ylpyrimidin-4(3H)-one]", "melting point": "169.7 to 169.8 °C"}, {"molecule": "Cn1c(NCCc2ccc(-c3ccccc3)cc2)nc(-c2ccncc2)cc1=O", "note": "[Compound 22, 2-[[2-(4-phenylphenyl)ethyl]amino]-3-methyl-6-pyridin-4-ylpyrimidin-4(3H)-one]", "melting point": "175.4 to 175.6 °C"}, {"molecule": "O=c1cc(-c2ccncc2)nc(NCCCc2ccccc2)n1Cc1ccccc1", "note": "[Compound 28, 2-[[3-(phenyl)propyl]amino]-3-phenylmethyl-6-pyridin-4-ylpyrimidin-4(3H)-one]", "melting point": "218 to 221 °C"}, {"molecule": "COc1ccc2[nH]cc(CCNc3nc(-c4ccncc4)cc(=O)n3C)c2c1", "note": "[Compound 30, 2-[[2-(5-methoxy-1H-indol-3-yl)ethyl]amino]-3-methyl-6-pyridin-4-ylpyrimidin-4(3H)-one]", "melting point": "242.7 to 243 °C"}, {"molecule": "Cn1c(NCCc2c[nH]c3ccc(OCc4ccccc4)cc23)nc(-c2ccncc2)cc1=O", "note": "[Compound 31, 2-[[2-(5-phenylmethoxy-1H-indol-3-yl)ethyl]amino]-3-methyl-6-pyridin-4-ylpyrimidin-4(3H)-one]", "melting point": "168.4 to 168.6 °C"}, {"molecule": "Cc1cccc2c(CCNc3nc(-c4ccncc4)cc(=O)n3C)c[nH]c12", "note": "[Compound 32, 2-[[2-(7-methyl-1H-indol-3-yl)ethyl]amino]-3-methyl-6-pyridin-4-ylpyrimidin-4 (3H)-one]", "melting point": "217.2 to 217.3 °C"}, {"molecule": "Cn1c(NC2Cc3ccccc3C2)nc(-c2ccncc2)cc1=O", "note": "[Compound 37, 2-[(indan-2-yl)amino]-3-methyl-6-pyridin-4-ylpyrimidin-4(3H)-one]", "melting point": "211.5 to 211.8 °C"}, {"molecule": "Cn1c(NC2CCCCC2)nc(-c2ccncc2)cc1=O", "note": "[Compound 46, 2-Cyclohexylamino-3-methyl-6-pyridin-4-yl-3H-pyrimidin-4-one]", "melting point": "268 to 270 °C"}, {"molecule": "CCCCNc1nc(-c2ccncc2)cc(=O)n1C", "note": "[Compound 47, 2-Butylamino-3-methyl-6-pyridin-4-yl-3H-pyrimidin-4-one]", "melting point": "180 to 182 °C"}, {"molecule": "CCCCCNc1nc(-c2ccncc2)cc(=O)n1C", "note": "[Compound 48, 3-Methyl-2-pentylamino-6-pyridin-4-yl-3H-pyrimidin-4-one]", "melting point": "157 to 159 °C"}, {"molecule": "CCCCCCNc1nc(-c2ccncc2)cc(=O)n1C", "note": "[Compound 49, 2-Hexylamino-3-methyl-6-pyridin-4-yl-3H-pyrimidin-4-one]", "melting point": "133 to 135 °C"}, {"molecule": "CCCCCCCNc1nc(-c2ccncc2)cc(=O)n1C", "note": "[Compound 50, 2-Heptylamino-3-methyl-6-pyridin-4-yl-3H-pyrimidin-4-one]", "melting point": "121 to 123 °C"}, {"molecule": "CCCCCCCCCNc1nc(-c2ccncc2)cc(=O)n1C", "note": "[Compound 52, 3-Methyl-2-nonylamino-6-pyridin-4-yl-3H-pyrimidin-4-one]", "melting point": "113 to 115 °C"}, {"molecule": "CC(C)CCNc1nc(-c2ccncc2)cc(=O)n1C", "note": "[Compound 55, 3-Methyl-2-(3-methyl-butylamino)-6-pyridin-4-yl-3H-pyrimidin-4-one]", "melting point": "213 to 217 °C"}, {"molecule": "Cn1c(NCC2CCCCC2)nc(-c2ccncc2)cc1=O", "note": "[Compound 56, 2-(Cyclohexylmethyl-amino)-3-methyl-6-pyridin-4-yl-3H-pyrimidin-4-one]", "melting point": "218 to 220 °C"}, {"molecule": "CCCOCCNc1nc(-c2ccncc2)cc(=O)n1C", "note": "[Compound 57, 3-Methyl-2-(2-propoxy-ethylamino)-6-pyridin-4-yl-3H-pyrimidin-4-one]", "melting point": "147 to 150 °C"}, {"molecule": "Cn1c(NCCCC2CCCCC2)nc(-c2ccncc2)cc1=O", "note": "[Compound 58, 2-(3-Cyclohexyl-propylamino)-3-methyl-6-pyridin-4-yl-3H-pyrimidin-4-one]", "melting point": "177 to 180 °C"}, {"molecule": "CCOCCCNc1nc(-c2ccncc2)cc(=O)n1C", "note": "[Compound 59, 2-(3-Ethoxy-propylamino)-3-methyl-6-pyridin-4-yl-3H-pyrimidin-4-one]", "melting point": "118 to 120 °C"}, {"molecule": "Cn1c(NCCCCCO)nc(-c2ccncc2)cc1=O", "note": "[Compound 61, 2-(5-Hydroxy-pentylamino)-3-methyl-6-pyridin-4-yl-3H-pyrimidin-4-one]", "melting point": "164 to 165 °C"}, {"molecule": "Cn1c(NCCCCO)nc(-c2ccncc2)cc1=O", "note": "[Compound 62, 2-(4-Hydroxy-butylamino)-3-methyl-6-pyridin-4-yl-3H-pyrimidin-4-one]", "melting point": "159 to 161 °C"}, {"molecule": "CC(C)OCCCNc1nc(-c2ccncc2)cc(=O)n1C", "note": "[Compound 63, 2-(3-Isopropoxy-propylamino)-3-methyl-6-pyridin-4-yl-3H-pyrimidin-4-one]", "melting point": "95 to 98 °C"}, {"molecule": "CCCOCCCNc1nc(-c2ccncc2)cc(=O)n1C", "note": "[Compound 64, 3-Methyl-2-(3-propoxy-propylamino)-6-pyridin-4-yl-3H-pyrimidin-4-one]", "melting point": "107 to 109 °C"}, {"molecule": "Cn1c(NCCC2CCCC2)nc(-c2ccncc2)cc1=O", "note": "[Compound 66, 2-(2-Cyclopentyl-ethylamino)-3-methyl-6-pyridin-4-yl-3H-pyrimidin-4-one]", "melting point": "190 to 194 °C"}, {"molecule": "Cn1c(NCCCN2CCCCC2)nc(-c2ccncc2)cc1=O", "note": "[Compound 67, 3-Methyl-2-(3-piperidin-1-yl-propylamino)-6-pyridin-4-yl-3H-pyrimidin-4-one]", "melting point": "162 to 163 °C"}, {"molecule": "CC(=O)OC(CNc1nc(-c2ccncc2)cc(=O)n1C)c1ccccc1", "note": "(stereo not drawn) [Compound 69, Acetic acid 2-(1-methyl-6-oxo-4-pyridin-4-yl-1 ,6-dihydro-pyrimidin-2-ylamino)-1-phenyl-ethyl ester]", "melting point": "81 to 84 °C"}, {"molecule": "Cn1c(NCCC23CC4CC(CC(C4)C2)C3)nc(-c2ccncc2)cc1=O", "note": "[Compound 70, 2-(2-Adamantan-1-yl-ethylamino)-3-methyl-6-pyridin-4-yl-3H-pyrimidin-4-one]", "melting point": "107 to 111 °C"}, {"molecule": "Cn1c(NCc2cccc(OCCCO)c2)nc(-c2ccncc2)cc1=O", "note": "[Compound 71, 2-[3-(3-Hydroxy-propoxy)-benzylamino]-3-methyl-6-pyridin-4-yl-3H-pyrimidin-4-one]", "melting point": "98 to 101 °C"}, {"molecule": "CC(=O)OCCCOc1cccc(CNc2nc(-c3ccncc3)cc(=O)n2C)c1", "note": "[Compound 73, Acetic acid 3-{3-[(1-methyl-6-oxo-4-pyridin-4-yl-1 ,6-dihydro-pyrimidin-2-ylamino)-methyl]-phenoxy}-propyl ester]", "melting point": "198 to 201 °C"}, {"molecule": "CN(C)CCCOc1cccc(CNc2nc(-c3ccncc3)cc(=O)n2C)c1", "note": "[Compound 74, 2-[3-(3-Dimethylamino-propoxy)-benzylamino]-3-methyl-6-pyridin-4-yl-3H-pyrimidin-4-one]", "melting point": "80 to 82 °C"}, {"molecule": "Cn1c(NCCCc2ccccc2)nc(-c2ccncc2)cc1=O", "note": "[Compound 78, 3-Methyl-2-(3-phenyl-propylamino)-6-pyridin-4-yl-3H-pyrimidin-4-one]", "melting point": "122 to 124 °C"}, {"molecule": "O=c1cc(-c2ccncc2)nc(NCCCc2ccccc2)n1CCO", "note": "[Compound 86, 3-(2-Hydroxy-ethyl)-2-(3-phenyl-propylamino)-6-pyridin-4-yl-3H-pyrimidin-4-one]", "melting point": "143 to 145 °C"}, {"molecule": "Cn1c(NCCSc2ccccc2)nc(-c2ccncc2)cc1=O", "note": "[Compound 92, 3-Methyl-2-(2-phenylsulfanyl-ethylamino)-6-pyridin-4-yl-3H-pyrimidin-4-one]", "melting point": "162 to 168 °C"}, {"molecule": "Cn1c(NCCNc2ccccc2)nc(-c2ccncc2)cc1=O", "note": "[Compound 93, 3-Methyl-2-(2-phenylamino-ethylamino)-6-pyridin-4-yl-3H-pyrimidin-4-one]", "melting point": "102 to 105 °C"}, {"molecule": "Cn1c(NCCOc2ccccc2)nc(-c2ccncc2)cc1=O", "note": "[Compound 94, 3-Methyl-2-(2-phenoxy-ethylamino)-6-pyridin-4-yl-3H-pyrimidin-4-one]", "melting point": "193 to 194 °C"}, {"molecule": "Cn1c(NCCc2ccccn2)nc(-c2ccncc2)cc1=O", "note": "[Compound 97, 3-Methyl-6-pyridin-4-yl-2(2-pyridin-2-yl-ethylamino)-3H-pyrimidin-4-one]", "melting point": "154 to 156 °C (dec.)"}]}]}
